# US9303016B2, “Derivatives of aza adamantane and uses thereof” (CONNEXIOS LIFE SCIENCES PVT. LTD., priority 2011, dated 2016)
# Molecular target: T1, human full length HSD11β1 (Homo sapiens, UniProt P28845)
# T1 construct: transient expression of human full length HSD11β1 expression vector; host or cells: CHO cells, transient transfection
# Assay: In Vitro HSD11β1 Inhibition Assay
# Assay type: cell-based
# Conditions: CHO cells transiently expressing human HSD11β1; 200 nM cortisone+500 uM NADPH overnight; cortisone to cortisol by LC/MS-MS; read-out: 11βHSD1 (IC50)
# Description: In Vitro HSD11β1 Inhibition Assay:
# CHO cells were maintained in Dulbecco's modified Eagle's medium/nutrient mixture F-12 containing 5% fetal bovine serum (v/v) and 2 mM glutamine. Cells were cultured at 37° C. with 5% CO2. For transient expression of human full length HSD11β1 expression vector (OriGene Technologies), cells were seeded at a density of 2×10^5 cells/well in a 6-well plate. Transfection was done using Turbofectin8 reagent (OriGene Technologies), according to the protocol provided with the reagent. After 24 hours post-transfection, cells were trypsinized and pooled together before they were re-seeding to 96-well plate at a density of 40000 cells/well. 24 hours after re-seeding, cells were incubated with 200 nM cortisone+500 uM NADPH (or along with small molecule inhibitors) overnight. The enzymatic activity or inhibition of enzyme activity was measured by estimating the conversion of cortisone to cortisol by LC/MS-MS method. The IC50 in nM was calculated from a 8 point log scale of concentration versus inhibition.
# T1 sequence (P28845 whole entry): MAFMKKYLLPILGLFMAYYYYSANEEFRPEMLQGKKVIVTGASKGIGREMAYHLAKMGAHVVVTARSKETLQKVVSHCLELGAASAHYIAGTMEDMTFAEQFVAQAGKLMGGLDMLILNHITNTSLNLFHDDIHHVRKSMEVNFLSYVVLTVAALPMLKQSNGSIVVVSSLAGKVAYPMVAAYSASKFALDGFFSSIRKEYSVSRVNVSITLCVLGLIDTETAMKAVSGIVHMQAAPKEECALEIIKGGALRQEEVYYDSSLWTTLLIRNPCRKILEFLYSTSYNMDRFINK
row,Compound,IC50 [nM]
1,"CC(CC(=O)N1C2CC3CC1CC(O)(C3)C2)c1nc2ccc(Cl)cc2s1 (single isomer, unassigned) [Compound 194, 3-(6-chloro-1,3-benzothiazol-2-yl)-1-(5-hydroxy-2-azatricyclo[3.3.1.1^3,7]dec-2-yl)butan-1-one]",< 100
2,"CC(CC(=O)N1C2CC3CC1CC(O)(C3)C2)c1nc2ccc(Cl)cc2s1 (single isomer, unassigned) [Compound 195, 3-(6-chloro-1,3-benzothiazol-2-yl)-1-(5-hydroxy-2-azatricyclo[3.3.1.1^3,7]dec-2-yl)butan-1-one]",> 250
3,"CC(CC(=O)N1C2CC3CC1CC(O)(C3)C2)c1c[nH]c2ncc(Cl)c(C3CC3)c12 (single isomer, unassigned) [Compound 200, 3-(5-chloro-4-cyclopropyl-1H-pyrrolo[2,3-b]pyridin-3-yl)-1-(5-hydroxy-2-azatricyclo[3.3.1.1^3,7]dec-2-yl)butan-1-one]",> 250
4,"CC(CC(=O)N1C2CC3CC1CC(C(=O)O)(C3)C2)c1c[nH]c2cccc(C3CC3)c12 (single isomer, unassigned) [Example 53, 2-[3-(4-cyclopropyl-1H-indol-3-yl)butanoyl]-2-azatricyclo[3.3.1.1^3,7]decane-5-carboxylic acid]",> 250
5,"CC(CC(=O)N1C2CC3CC1CC(c1nnn[nH]1)(C3)C2)c1c[nH]c2cccc(Cl)c12 (stereo not drawn) [Compound 76, 3-(4-chloro-1H-indol-3-yl)-1-[5-(1H-tetrazol-5-yl)-2-azatricyclo[3.3.1.1^3,7]dec-2-yl]butan-1-one]",> 250
6,"Cc1cccc2[nH]cc(C(C)CC(=O)N3C4CC5CC3CC(c3nnn[nH]3)(C5)C4)c12 (stereo not drawn) [Compound 77, 3-(4-methyl-1H-indol-3-yl)-1-[5-(1H-tetrazol-5-yl)-2-azatricyclo[3.3.1.1^3,7]dec-2-yl]butan-1-one]",> 250
7,"Cc1cccc2c(C(C)CC(=O)N3C4CC5CC3CC(O)(C5)C4)c[nH]c12 (stereo not drawn) [Compound 78, 1-(5-hydroxy-2-azatricyclo[3.3.1.1^3,7]dec-2-yl)-3-(7-methyl-1H-indol-3-yl)butan-1-one]",> 250
8,"CC(CC(=O)N1C2CC3CC1CC(O)(C3)C2)c1cn(CCO)c2cccc(C3CC3)c12 (stereo not drawn) [Compound 80, 3-[4-cyclopropyl-1-(2-hydroxyethyl)-1H-indol-3-yl]-1-(5-hydroxy-2-azatricyclo[3.3.1.1^3,7]dec-2-yl)butan-1-one]",> 250
9,"CC(CC(=O)N1C2CC3CC1CC(O)(C3)C2)c1nc2ccccc2s1 (stereo not drawn) [Compound 84, 3-(1,3-benzothiazol-2-yl)-1-(5-hydroxy-2-azatricyclo[3.3.1.1^3,7]dec-2-yl)butan-1-one]",200 to 250
10,CC(CC(=O)N1C2CC3CC(C2)CC1C3)c1c[nH]c2ncccc12 (stereo not drawn) [Compound 85],< 100
11,"CC(CC(=O)N1C2CC3CC1CC(O)(C3)C2)c1c[nH]c2ncccc12 (stereo not drawn) [Compound 86, 1-(5-hydroxy-2-azatricyclo[3.3.1.1]dec-2-yl)-3-(1H-pyrrolo[2,3-b]pyridin-3-yl)butan-1-one]",> 250
12,"CC(CC(=O)N1C2CC3CC1CC(O)(C3)C2)c1c[nH]c2nccc(Cl)c12 (stereo not drawn) [Compound 87, 3-(4-chloro-1H-pyrrolo[2,3-b]pyridin-3-yl)-1-(5-hydroxy-2-azatricyclo[3.3.1.1^3,7]dec-2-yl)butan-1-one]",150 to 200
13,"Cc1ccnc2[nH]cc(C(C)CC(=O)N3C4CC5CC3CC(O)(C5)C4)c12 (stereo not drawn) [Compound 88, 1-(5-hydroxy-2-azatricyclo[3.3.1.1^3,7]dec-2-yl)-3-(4-methyl-1H-pyrrolo[2,3-b]pyridin-3-yl)butan-1-one]",> 250
14,"CC(C)C(CC(=O)N1C2CC3CC1CC(O)(C3)C2)c1c[nH]c2ncccc12 (stereo not drawn) [Compound 90, 1-(5-hydroxy-2-azatricyclo[3.3.1.1^3,7]dec-2-yl)-4-methyl-3-(1H-pyrrolo[2,3-b]pyridin-3-yl)pentan-1-one]",> 250
15,"CC(CC(=O)N1C2CC3CC1CC(C(=O)O)(C3)C2)c1c[nH]c2ncccc12 (stereo not drawn) [Compound 91, 2-[3-(1H-pyrrolo[2,3-b]pyridin-3-yl)butanoyl]-2-azatricyclo[3.3.1.1^3,7]decane-5-carboxylic acid]",> 250
16,"CC(C)C(CC(=O)N1C2CC3CC1CC(C#N)(C3)C2)c1c[nH]c2ncccc12 (stereo not drawn) [Compound 92, 2-[4-methyl-3-(1H-pyrrolo[2,3-b]pyridin-3-yl)pentanoyl]-2-azatricyclo[3.3.1.1^3,7]decane-5-carbonitrile]",> 250

# Second part, the compound after the results:
row,IC50 [nM],Compound
1,> 250,"CC(CC(=O)N1C2CC3CC1CC(O)(C3)C2)c1c[nH]c2cccc(-c3cccs3)c12 (single isomer, unassigned) [Compound 189, 1-(5-hydroxy-2-azatricyclo[3.3.1.1^3,7]dec-2-yl)-3-[4-(thiophen-2-yl)-1H-indol-3-yl]butan-1-one]"
2,> 250,"CC(CC(=O)N1C2CC3CC1CC(O)(C3)C2)c1c[nH]c2ccccc12 (single isomer, unassigned) [Example 21, 1-(5-hydroxy-2-azatricyclo[3.3.1.1^3,7]dec-2-yl)-3-(1H-indol-3-yl)butan-1-one]"
3,> 250,"CC(CC(=O)N1C2CC3CC1CC(O)(C3)C2)c1c[nH]c2ccccc12 (single isomer, unassigned) [Example 22, 1-(5-hydroxy-2-azatricyclo[3.3.1.1^3,7]dec-2-yl)-3-(1H-indol-3-yl)butan-1-one]"
4,> 250,"CC(CC(=O)N1C2CC3CC1CC(O)(C3)C2)c1c[nH]c2cccc(F)c12 (single isomer, unassigned) [Example 27, 3-(4-fluoro-1H-indol-3-yl)-1-(5-hydroxy-2-azatricyclo[3.3.1.1^3,7]dec-2-yl)butan-1-one]"
5,200 to 250,"CC(CC(=O)N1C2CC3CC1CC(O)(C3)C2)c1c[nH]c2cccc(F)c12 (single isomer, unassigned) [Example 28, 3-(4-fluoro-1H-indol-3-yl)-1-(5-hydroxy-2-azatricyclo[3.3.1.1^3,7]dec-2-yl)butan-1-one]"
6,150 to 200,"COC12CC3CC(C1)N(C(=O)CC(C)c1c[nH]c4cccc(F)c14)C(C3)C2 (single isomer, unassigned) [Example 30, 3-(4-fluoro-1H-indol-3-yl)-1-(5-methoxy-2-azatricyclo[3.3.1.1^3,7]dec-2-yl)butan-1-one]"
7,< 100,"COC12CC3CC(C1)N(C(=O)CC(C)c1c[nH]c4cccc(F)c14)C(C3)C2 (single isomer, unassigned) [Example 31, 3-(4-fluoro-1H-indol-3-yl)-1-(5-methoxy-2-azatricyclo[3.3.1.1^3,7]dec-2-yl)butan-1-one]"
8,200 to 250,"CC(CC(=O)N1C2CC3CC1CC(O)(C3)C2)c1c[nH]c2cccc(Cl)c12 (single isomer, unassigned) [Example 36, 3-(4-chloro-1H-indol-3-yl)-1-(5-hydroxy-2-azatricyclo[3.3.1.1^3,7]dec-2-yl)butan-1-one]"
9,< 100,"CC(CC(=O)N1C2CC3CC1CC(O)(C3)C2)c1c[nH]c2cccc(Cl)c12 (single isomer, unassigned) [Example 37, 3-(4-chloro-1H-indol-3-yl)-1-(5-hydroxy-2-azatricyclo[3.3.1.1^3,7]dec-2-yl)butan-1-one]"
10,< 100,"Cc1cccc2[nH]cc(C(C)CC(=O)N3C4CC5CC3CC(O)(C5)C4)c12 (single isomer, unassigned) [Example 49, 1-(5-hydroxy-2-azatricyclo[3.3.1.1^3,7]dec-2-yl)-3-(4-methyl-1H-indol-3-yl)butan-1-one]"
11,< 100,"O=C(CC(c1ccc(F)cc1)c1c[nH]c2ccccc12)N1C2CC3CC1CC(O)(C3)C2 (stereo not drawn) [Compound 73, 3-(4-fluorophenyl)-1-(5-hydroxy-2-azatricyclo[3.3.1.1^3,7]dec-2-yl)-3-(1H-indol-3-yl)propan-1-one]"
12,> 250,"Cc1cccc2[nH]cc(C(CC(=O)N3C4CC5CC3CC(O)(C5)C4)C(C)C)c12 (stereo not drawn) [Compound 74, 1-(5-hydroxy-2-azatricyclo[3.3.1.1^7]dec-2-yl)-4-methyl-3-(4-methyl-1H-indol-3-yl)pentan-1-one]"
13,200 to 250,"CC(CC(=O)N1C2CC3CC1CC(O)(C3)C2)c1c[nH]c2ccc(F)cc12 (stereo not drawn) [Compound 75, 3-(5-fluoro-1H-indol-3-yl)-1-(5-hydroxy-2-azatricyclo[3.3.1.1^3,7]dec-2-yl)butan-1-one]"
14,100 to 150,"CC(CC(=O)N1C2CC3CC1CC(O)(C3)C2)c1c[nH]c2cc(F)ccc12 (stereo not drawn) [Compound 79, 3-(6-fluoro-1H-indol-3-yl)-1-(5-hydroxy-2-azatricyclo[3.3.1.1^3,7]dec-2-yl)butan-1-one]"
15,< 100,"O=C(CC(c1ccccc1)c1c[nH]c2cccc(F)c12)N1C2CC3CC1CC(O)(C3)C2 (stereo not drawn) [Compound 83, 3-(4-fluoro-1H-indol-3-yl)-1-(5-hydroxy-2-azatricyclo[3.3.1.1^3,7]dec-2-yl)-3-phenylpropan-1-one]"
16,> 250,"Cc1cccc2[nH]cc(C(CC(=O)N3C4CC5CC3CC(O)(C5)C4)c3ccc(F)cc3)c12 (stereo not drawn) [Compound 93, 3-(4-fluorophenyl)-1-(5-hydroxy-2-azatricyclo[3.3.1.1^3,7]dec-2-yl)-3-(4-methyl-1H-indol-3-yl)propan-1-one]"
17,< 100,"O=C(CC(c1ccccc1)c1c[nH]c2cc(F)ccc12)N1C2CC3CC1CC(O)(C3)C2 (stereo not drawn) [Compound 94, 3-(6-fluoro-1H-indol-3-yl)-1-(5-hydroxy-2-azatricyclo[3.3.1.1^3,7]dec-2-yl)-3-phenylpropan-1-one]"
